Two compounds from patent publication US11247001B2, “Delivery device with cantilever structure and associated method of use” (De Motu Cordis Pty Ltd, priority 2016, dated 2022) can be followed below.

A short description of the series: Particle deagglomeration: particle size distribution of the dose of dry powder emitted by the delivery device. The conditions noted are these: for emitted dose: dry powder emitted from delivery device comprising a container for storing dry powder (FIG. 28, FIG. 29); for deagglomerated to the typical inhalable range: share of dry powder, delivery device with container. It is filed as physicochemical. An excerpt: The performance of the delivery device can be measured by how closely the particle size distribution of the emitted powder approaches the original distribution.
An embodiment of the device that stored Mannitol on a corrugated reed was also compared to the embodiment of the device that stored and dispensed Mannitol from a blister.

On to `CNCC(O)c1ccc(O)c(O)c1` (stereo not shown) [Adrenaline], for which the emitted dose was 72.4-92.0% and the “deagglomerated to the typical inhalable range” value is given as “about 35%”.
In the case of `OC[C@@H](O)[C@@H](O)[C@H](O)[C@H](O)CO` [Mannitol], the emitted dose is recorded as 75.3-86.1% and the “deagglomerated to the typical inhalable range” value was “About 50%”. Also, the “Fine Particle Fraction < 5 um (%)” value (Table 2, performance of device, N = 8, 68% CI) is 48.0-60.9%. Moreover, the FPF entry (device that dispensed from a blister) is listed as “about 43%”. Also, the FPF result (device that dispensed from the reed (corrugated reed)) was “about 44%”. Moreover, the FPF entry (device with a reed) was “about 43%”. Also, the “Fine Particle Fraction < 5 um (%)” value (device with reed, N = 10, 68% CI) was 38.9-47.4%. Moreover, the FPF result (device without a reed) is recorded as “about 31%”. The “Fine Particle Fraction < 5 um (%)” value (device without reed, same flow conditions, N = 10, 68% CI) is on record as 26.8-35.1%. Under “powder stored in and dispensed from blister, N = 10, 68% CI”, the “Fine Particle Fraction < 5 um (%)” value is 38.9-47.4%. In addition, the “Fine Particle Fraction < 5 um (%)” value (powder stored in and dispensed from corrugated reed, N = 5, 68% CI) is on record as 40.6-48.2%.
